67 compounds from US6727237B2, “Inhibitors of bacterial NAD synthetase” (priority 1998, dated 2004) can be followed below.

This assay relates to Staphylococcus epidermitis. Kind of assay: Bacterial growth inhibition screen in LB media (absorbance 595 nm), percent inhibition. Conditions: S. epidermitis.

Broadly, the % Inhibition is how much of the control response was suppressed. Low readings indicate a weak effect, high ones a strong effect. In the case of `CC(C)c1ccc2[nH]c(CCCCCCCCOC(=O)c3ccc(N(C)C)cc3)cc2c1` [Compound 629], the “% Inhibition” value (concentration screened 100 uM) is 6.66%.

Regarding `O=C(OCCCCCCCCc1cc2ccc(C(F)(F)F)cc2[nH]1)c1cccnc1` [Compound 683], the “% Inhibition” value (concentration screened 10 uM) is 9.26%.

In the case of `O=C(OCCCCCCCCc1cc2cc(C(=O)c3ccccc3)ccc2[nH]1)c1ccncc1` [Compound 710], the “% Inhibition” value (concentration screened 10 uM) came to 6.95%.

In the case of `CC(C)c1ccc2[nH]c(CCCCCCCOC(=O)c3ccccc3-c3ccccc3)cc2c1` [Compound 631], the “% Inhibition” value (concentration screened 10 uM) is 12.19%.

With `CN(C)c1ccc(C(=O)OCCCCc2cc3cc(C(F)(F)F)ccc3[nH]2)cc1` [Compound 609], the “% Inhibition” value (concentration screened 100 uM) is 7.35%.

For the compound `FC(F)(F)c1ccc2cc(CCCCCCC[n+]3cccc4ccccc43)[nH]c2c1` [Compound 400], the “% Inhibition” value (concentration screened 10 uM) was found to be 5.50%.

On to `c1ccc(Oc2ccc3[nH]c(CCCCC[n+]4ccccc4)cc3c2)cc1` [Compound 350], for which, where the note is “concentration screened 10 uM”, the “% Inhibition” value came out at 7.59%.

Take `CC(C)c1ccc2[nH]c(CCCCCCCCOC(=O)c3ccncc3)cc2c1` [Compound 704]: the “% Inhibition” value (concentration screened 10 uM) is recorded as 19.07%.

On to `O=C(OCCCCc1cc2cc(Oc3ccccc3)ccc2[nH]1)c1cccnc1` [Compound 684], for which the “% Inhibition” value (concentration screened 10 uM) amounted to 10.83%.

For the compound `COC(=O)c1ccc2c(ccn2CCC[n+]2cccc(C(=O)OC)c2)c1` [Compound 171], the “% Inhibition” value (concentration screened 10 uM) amounted to 15.33%.

Take `C[n+]1cccc(C(=O)OCCCCCCCCCc2cc3cc([N+](=O)[O-])ccc3[nH]2)c1` [Compound 281]: under “concentration screened 10 uM”, the “% Inhibition” value is given as 84.23%.

With `CC(=O)c1ccc2[nH]c(CCCCCCCOC(=O)c3cccc(N(C)C)c3)cc2c1` [Compound 634], the “% Inhibition” value (concentration screened 10 uM) was 10.08%.

Consider `O=C(OCCCCCCCc1cc2cc(C(F)(F)F)ccc2[nH]1)C(c1ccccc1)c1ccccc1` [Compound 652], for which, under “concentration screened 10 uM”, the “% Inhibition” value was determined as 2.52%.

Take `C[n+]1cc(C(=O)OCCCCn2ccc3cc(OCc4ccccc4)ccc32)cc2ccccc21` [Compound 825]: the “% Inhibition” value (concentration screened 10 uM) is 83.13%.

On to `COc1ccc2c(ccn2CCCCOC(=O)c2cc3ccccc3[n+](C)c2)c1` [Compound 820], for which the “% Inhibition” value (concentration screened 10 uM) was determined as 65.74%.

Regarding `O=C(OCCCCCCCc1cc2cc(C(=O)c3ccccc3)ccc2[nH]1)c1cccnc1` [Compound 694], the “% Inhibition” value (concentration screened 10 uM) came to 2.59%.

For the compound `O=C(OCCCCCCCc1cc2cc(C(F)(F)F)ccc2[nH]1)c1cccnc1` [Compound 655], where the note is “concentration screened 10 uM”, the “% Inhibition” value was found to be 11.51%.

For the compound `O=C(OCCCCc1cc2cc(C(F)(F)F)ccc2[nH]1)c1ccccc1-c1ccccc1` [Compound 612], the “% Inhibition” value (concentration screened 100 uM) amounted to 10.24%.

In the case of `Fc1cc(F)c2[nH]c(CCCCCCC[n+]3cccc4ccccc43)cc2c1` [Compound 412], the “% Inhibition” value (concentration screened 10 uM) was 7.73%.

As for `COc1ccc2c(ccn2CCCCOC(=O)c2ccc([N+](C)(C)C)cc2)c1` [Compound 780], the “% Inhibition” value (concentration screened 10 uM) turned out to be 4.78%.

In the case of `c1ccc(Oc2ccc3[nH]c(CCCCCC[n+]4cccc5ccccc54)cc3c2)cc1` [Compound 459], where the note is “concentration screened 10 uM”, the “% Inhibition” value is 16.09%.

With `O=C(CCc1cccnc1)OCCCCCCCCc1cc2cc([N+](=O)[O-])ccc2[nH]1` [Compound 728], where the note is “concentration screened 10 uM”, the “% Inhibition” value is reported as 13.28%.

`O=C(c1ccccc1)c1ccc2[nH]c(CCCCOC(=O)C(c3ccccc3)c3ccccc3)cc2c1` [Compound 675]: the “% Inhibition” value (concentration screened 100 uM) worked out at 11.37%.

On to `O=[N+]([O-])c1cc([N+](=O)[O-])c2[nH]c(CCCCC[n+]3cccc4ccccc43)cc2c1` [Compound 416], for which the “% Inhibition” value (concentration screened 10 uM) stood at 2.09%.

For `CN(C)c1ccc(C(=O)OCCCCc2cc3cc(Oc4ccccc4)ccc3[nH]2)cc1` [Compound 618], the “% Inhibition” value (concentration screened 100 uM) was found to be 11.06%.

With `CC(=O)c1ccc2[nH]c(CCCCCCCCOC(=O)C(c3ccccc3)c3ccccc3)cc2c1` [Compound 671], the “% Inhibition” value (concentration screened 100 uM) worked out at 5.72%.

With `O=C(OCCCCCCCc1cc2cc(Oc3ccccc3)ccc2[nH]1)C(c1ccccc1)c1ccccc1` [Compound 658], the “% Inhibition” value (concentration screened 10 uM) is on record as 1.43%.

Turning to `O=C(c1ccccc1)c1ccc2[nH]c(CCCCCCCCOC(=O)c3ccccc3-c3ccccc3)cc2c1` [Compound 650], the “% Inhibition” value (concentration screened 100 uM) came to 7.73%.

Turning to `CN(C)c1ccc(C(=O)OCCCCCCCCCn2ccc3cc([N+](=O)[O-])ccc32)cc1` [Compound 847], for the setting “concentration screened 10 uM”, the “% Inhibition” value was found to be 19.84%.

Regarding `O=C(OCCCCc1cc2ccc(C(F)(F)F)cc2[nH]1)c1cccnc1` [Compound 681], the “% Inhibition” value (concentration screened 10 uM) came out at 4.22%.

As to `O=C(OCCCCCCCCc1cc2cc([N+](=O)[O-])ccc2[nH]1)c1ccccc1-c1ccccc1` [Compound 729], the “% Inhibition” value (concentration screened 10 uM) is given as 8.24%.

`CN(C)c1cccc(C(=O)OCCCCCCn2ccc3cc([N+](=O)[O-])ccc32)c1` [Compound 838]: the “% Inhibition” value (concentration screened 10 uM) came out at 17.65%.

On to `O=C(OCCCCCCCCc1cc2cc(Oc3ccccc3)ccc2[nH]1)c1ccccc1-c1ccccc1` [Compound 623], for which the “% Inhibition” value (concentration screened 100 uM) worked out at 34.17%.

Take `O=C([O-])c1ccc[n+](CCCn2c(C(=O)O)cc3ccccc32)c1` [Compound 191]: the “% Inhibition” value (concentration screened 10 uM) was determined as 46.32%.

On to `c1ccc2[nH]c(CCCC[n+]3cccc4ccccc43)cc2c1` [Compound 391], for which the “% Inhibition” value (concentration screened 10 uM) came out at 5.29%.

In the case of `CN(C)c1cccc(C(=O)OCCCCc2cc3cc(C(F)(F)F)ccc3[nH]2)c1` [Compound 606], the “% Inhibition” value (concentration screened 100 uM) was determined as 9.17%.

In the case of `O=C(OCCCCCCCc1cc2cc(Oc3ccccc3)ccc2[nH]1)c1ccccc1-c1ccccc1` [Compound 622], the “% Inhibition” value (concentration screened 10 uM) is 7.97%.

For `O=C(OCCCCc1cc2cc(C(F)(F)F)ccc2[nH]1)C(c1ccccc1)c1ccccc1` [Compound 651], for the setting “concentration screened 100 uM”, the “% Inhibition” value turned out to be 13.51%.

With `O=C(OCCCCc1cc2cc(Oc3ccccc3)ccc2[nH]1)C(c1ccccc1)c1ccccc1` [Compound 657], the “% Inhibition” value (concentration screened 100 uM) came to 37.12%.

As to `CC(C)c1ccc2[nH]c(CCCCCCCOC(=O)c3cccc(N(C)C)c3)cc2c1` [Compound 625], the “% Inhibition” value (concentration screened 10 uM) is given as 7.77%.

Turning to `O=C(OCCCn1ccc2cc([N+](=O)[O-])ccc21)c1cccnc1` [Compound 855], the “% Inhibition” value (concentration screened 10 uM) came out at 49.58%.

As for `CC(=O)c1ccc2[nH]c(CCCCCCCOC(=O)c3ccncc3)cc2c1` [Compound 706], the “% Inhibition” value (concentration screened 10 uM) is 6.68%.

Take `CN(C)c1ccc(C(=O)OCCCCCCCCc2cc3cc([N+](=O)[O-])ccc3[nH]2)cc1` [Compound 727]: the “% Inhibition” value (concentration screened 10 uM) turned out to be 42.23%.

With `O=C(OCCCCCCCCc1cc2cc(C(=O)c3ccccc3)ccc2[nH]1)c1cccnc1` [Compound 680], for the setting “concentration screened 10 uM”, the “% Inhibition” value was 22.48%.

Regarding `CN(C)c1cccc(C(=O)OCCCCc2cc3cc(Oc4ccccc4)ccc3[nH]2)c1` [Compound 615], the “% Inhibition” value (concentration screened 100 uM) turned out to be 11.81%.

On to `CC(C)c1ccc2[nH]c(CCCCCCCOC(=O)c3ccncc3)cc2c1` [Compound 703], for which the “% Inhibition” value (concentration screened 10 uM) is recorded as 4.29%.

For the compound `CN(C)c1ccc(C(=O)OCCCCCCCCc2cc3cc(C(=O)c4ccccc4)ccc3[nH]2)cc1` [Compound 647], for the setting “concentration screened 100 uM”, the “% Inhibition” value came out at 13.38%.

As to `CC(=O)c1ccc2[nH]c(CCCCCCCCOC(=O)c3ccncc3)cc2c1` [Compound 707], the “% Inhibition” value (concentration screened 10 uM) was determined as 3.61%.

For `CN(C)c1cccc(C(=O)OCCCCCCCc2cc3cc(Oc4ccccc4)ccc3[nH]2)c1` [Compound 616], the “% Inhibition” value (concentration screened 10 uM) amounted to 5.59%.

For the compound `c1ccc2[nH]c(CCC[n+]3cccc4ccccc43)cc2c1` [Compound 390], the “% Inhibition” value (concentration screened 10 uM) turned out to be 5.92%.

Regarding `C[n+]1cc(C(=O)OCCCCCCCCn2ccc3cc(OCc4ccccc4)ccc32)cc2ccccc21` [Compound 829], the “% Inhibition” value (concentration screened 10 uM) worked out at 98.64%.

Regarding `CC(C)c1ccc2[nH]c(CCCCCCCCOC(=O)c3cccc(N(C)C)c3)cc2c1` [Compound 626], the “% Inhibition” value (concentration screened 100 uM) worked out at 14.26%.

As to `CC(C)c1ccc2[nH]c(CCCCCCCOC(=O)C(c3ccccc3)c3ccccc3)cc2c1` [Compound 664], the “% Inhibition” value (concentration screened 10 uM) is 3.88%.

In the case of `CC(=O)c1ccc2[nH]c(CCCCOC(=O)c3cccnc3)cc2c1` [Compound 690], the “% Inhibition” value (concentration screened 10 uM) was 10.01%.

For the compound `CN(C)c1cccc(C(=O)OCCCCCCCc2cc3cc(C(=O)c4ccccc4)ccc3[nH]2)c1` [Compound 643], for the setting “concentration screened 10 uM”, the “% Inhibition” value is 15.46%.

`C[n+]1cccc(C(=O)OCCCCn2ccc3cc([N+](=O)[O-])ccc32)c1` [Compound 863]: the “% Inhibition” value (concentration screened 10 uM) amounted to 4.72%.

As to `CC(=O)c1ccc2[nH]c(CCCCOC(=O)c3ccccc3-c3ccccc3)cc2c1` [Compound 639], for the setting “concentration screened 100 uM”, the “% Inhibition” value came out at 7.41%.

As for `O=C(OCCCCCCCCc1cc2cc([N+](=O)[O-])ccc2[nH]1)C(c1ccccc1)c1ccccc1` [Compound 726], the “% Inhibition” value (concentration screened 10 uM) came out at 16.76%.

`CC(C)c1ccc2[nH]c(CCCCOC(=O)c3cccnc3)cc2c1` [Compound 687]: the “% Inhibition” value (concentration screened 10 uM) was 14.44%.

With `CC(C)c1ccc2[nH]c(CCCCCCCCOC(=O)C(c3ccccc3)c3ccccc3)cc2c1` [Compound 665], the “% Inhibition” value (concentration screened 100 uM) is 12.75%.

Consider `CN(C)c1ccc(C(=O)OCCCCCn2ccc3cc([N+](=O)[O-])ccc32)cc1` [Compound 843], for which, for the setting “concentration screened 10 uM”, the “% Inhibition” value stood at 2.20%.

Regarding `O=C(OCCCCCCCCc1cc2cc(Oc3ccccc3)ccc2[nH]1)c1cccnc1` [Compound 686], the “% Inhibition” value (concentration screened 10 uM) is given as 22.14%.

Turning to `O=C(OCCCCCCCc1cc2cc(C(=O)c3ccccc3)ccc2[nH]1)c1ccncc1` [Compound 709], the “% Inhibition” value (concentration screened 10 uM) is given as 12.94%.

On to `O=C(OCCCCCCCc1cc2cc(Oc3ccccc3)ccc2[nH]1)c1cccnc1` [Compound 661], for which, for the setting “concentration screened 10 uM”, the “% Inhibition” value is given as 39.31%.

Turning to `CC(=O)c1ccc2[nH]c(CCCCCCCCOC(=O)c3cccnc3)cc2c1` [Compound 674], the “% Inhibition” value (concentration screened 10 uM) turned out to be 7.70%.

Consider `CN(C)c1cccc(C(=O)OCCCCc2cc3cc(C(=O)c4ccccc4)ccc3[nH]2)c1` [Compound 642], for which the “% Inhibition” value (concentration screened 100 uM) was determined as 8.86%.

Turning to `O=C(OCCCCCCCc1cc2cc(C(F)(F)F)ccc2[nH]1)c1ccccc1-c1ccccc1` [Compound 613], the “% Inhibition” value (concentration screened 10 uM) is 1.36%.
